Measurements from BindingDB's records for PubMed 39722476 (Nanjing University of Chinese Medicine).

Target: Methylosome protein 50/Protein arginine N-methyltransferase 5 (Homo sapiens, UniProt O14744+Q9BQA1)
Assay: Inhibition of recombinant N-terminal FLAG-tagged human full-length PRMT5/full length human MEP50 extracted from baculovirus expression system using [3H]-SAM as substrate preincubated for 15 mins followed by substrate addition and measured after 60 mins by multimode plate reader analysis

Chain of Methylosome protein 50/Protein arginine N-methyltransferase 5 (O14744 whole entry): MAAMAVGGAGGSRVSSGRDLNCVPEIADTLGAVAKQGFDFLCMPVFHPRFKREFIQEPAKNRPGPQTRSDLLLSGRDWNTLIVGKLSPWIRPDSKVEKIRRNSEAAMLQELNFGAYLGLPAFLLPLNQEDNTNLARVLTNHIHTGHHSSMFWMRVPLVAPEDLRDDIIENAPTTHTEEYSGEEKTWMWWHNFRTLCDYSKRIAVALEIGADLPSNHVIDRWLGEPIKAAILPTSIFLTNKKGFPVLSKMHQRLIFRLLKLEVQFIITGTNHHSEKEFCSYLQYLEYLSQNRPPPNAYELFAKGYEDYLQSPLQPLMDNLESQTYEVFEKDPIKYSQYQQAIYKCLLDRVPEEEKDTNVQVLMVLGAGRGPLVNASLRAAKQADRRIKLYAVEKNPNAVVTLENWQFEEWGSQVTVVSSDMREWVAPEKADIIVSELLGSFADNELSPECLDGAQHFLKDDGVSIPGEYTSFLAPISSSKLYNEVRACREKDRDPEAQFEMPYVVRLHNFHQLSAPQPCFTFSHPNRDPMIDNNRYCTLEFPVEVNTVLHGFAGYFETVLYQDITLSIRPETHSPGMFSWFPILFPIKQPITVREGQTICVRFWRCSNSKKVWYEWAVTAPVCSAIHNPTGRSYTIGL
Chain of Methylosome protein 50/Protein arginine N-methyltransferase 5 (Q9BQA1 whole entry): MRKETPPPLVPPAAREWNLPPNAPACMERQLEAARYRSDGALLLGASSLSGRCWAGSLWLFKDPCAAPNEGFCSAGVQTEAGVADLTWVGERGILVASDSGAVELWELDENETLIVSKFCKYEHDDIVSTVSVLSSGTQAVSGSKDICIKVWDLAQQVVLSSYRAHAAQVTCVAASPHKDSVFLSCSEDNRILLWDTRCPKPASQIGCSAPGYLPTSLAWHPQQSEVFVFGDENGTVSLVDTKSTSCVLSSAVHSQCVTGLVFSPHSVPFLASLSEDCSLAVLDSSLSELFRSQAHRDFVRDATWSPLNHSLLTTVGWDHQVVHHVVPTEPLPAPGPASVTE

IC50: 33 nM
SMILES: CC(=O)N1CCC(Nc2cc3c(cn2)C2(CC2)CN(C[C@H](O)CN2CCc4ccccc4C2)C3=O)CC1 [US20240116918, Example 1]
